According to US7812022B2 (GlaxoSmithKline LLC, priority 2004, dated 2010):

Key:
ErbB2 or EGFR = target: T1, ErbB2 or EGFR; assay: ErbB family substrate phosphorylation enzyme assay (HTRF), Method A or Method B; format: biochemical
T1 construct: enzymes purified from a baculovirus expression system; Reagent production was conducted essentially as described in Brignola, P. S., et al, (2002) J. Biol. Chem. 277(2): 1576-1585
Experimental: Compounds of the present invention were tested for EGFR, ErbB-2, and ErbB-4 protein tyrosine kinase inhibitory activity in substrate phosphorylation assays using enzymes purified from a baculovirus expression system. Reagent production was conducted essentially as described in Brignola, P. S., et al, (2002) J. Biol. Chem. 277(2): 1576-1585.
The method measures the ability of the isolated enzyme to catalyse the transfer of the gamma-phosphate from ATP onto the tyrosine residue of a biotinylated synthetic peptide referenced “Peptide C” in Brignola, P. S., et al, (2002) J. Biol. Chem. 277(2):1576-1585. The extent of tyrosine phosphorylation was measured using an anti-phosphotyrosine antibody, and quantified by homogenous time-resolved fluorescence (HTRF).
Reactions were performed in black 384-well polystyrene flat-bottom plates in a final volume of 20 ul. Assays were performed by adding 10 μl of each of the following solutions, substrate Mix and enzyme mix: The Substrate mix contained 100 mM 3-[N-morpholino]propanesulfonic acid (MOPS) (pH 7.5), 2 mM MnCl2, 20 μM ATP, 0.01% Tween-20, 0.1 mg/mL (BSA), 0.8 uM peptide substrate, and 1 mM dithiothreitol. The enzyme mix contained 100 mM MOPS (pH7.5); 0.01% Tween-20; 0.1 mg/mL BSA, and either 0.8 nM EGFR, 10 nM ErbB2, or 1 nM ErbB4
During the course of these studies, two separate methods have been used to measure the potency of compounds. In Method A, the substrate mix was added to the compound plates first, then the reaction was started by adding the enzyme mix. In Method B, the enzyme mix was added to the compound plates and the plates were incubated at 20° C. for 1 hour. The reactions were then started by adding the substrate mix.
After initiating the reaction with either method describe above, the reactions were allowed to proceed for 90 minutes at 20° C. The reactions were then terminated by the addition of 20 μl 100 mM EDTA to each well. 40 μl/well of HTRF detection mix were added to the assay plates. The final concentrations of the detection reagents were: 100 mM HEPES (pH7.5), 0.1 mg/mL BSA, 15 nM streptavidin-labeled allophycocyanin (PerkinElmer), and 1 nM europium-labeled anti-phosphotyrosine antibody (PerkinElmer). Assay plates were left unsealed and were counted in a Wallac Multilabel Counter 1420 (PerkinElmer).
Compounds under analysis were dissolved in Me2SO to 1.0 mM and serially diluted 1 to 3 with Me2SO through twelve dilutions. 1 μl of each concentration was transferred to the corresponding well of an assay plate. This creates a final compound concentration range from 0.00027 to 47.6 μM.
The data for dose responses were plotted as % Inhibition calculated with the data reduction formula 100*(1−(U1−C2)/(C1−C2)) versus concentration of compound where U is the unknown value, C1 is the average control value obtained for 4.76% DMSO, and C2 is the average control value obtained for 0.035 M EDTA. Data were fitted with a curve described by: y=((Vmax*x)/(K+x))+Y^2 where Vmax is the upper asymptote, Y2 is the Y intercept, and K is the IC50. The results for each compound were recorded as pIC50s, calculated as follows: pIC50=−Log 10(K)

[1] = tested on: BT474 and HN5 tumor cell lines; assay: Methylene blue growth inhibition assay (cellular Method A); format: cell-based, Human; settings: Homo sapiens, BT-474, 72 h, 3 days, read-out: Activity (Method): growth inhibition IC50 class
Experimental: Human breast (BT474) and head and neck (HN5) were cultured in low glucose DMEM (Life Technologies 12320-032) containing 10% fetal bovine serum (FBS). Human colon tumor cells (Colo205) were cultured in DMEM (Invitrogen, 10564) containing 10% FBS. The SV40 transformed human mammary epithelial cell line HB4a was transfected with either human H-ras cDNA (HB4a r4.2) or the human c-ErbB2 cDNA (HB4a c5.2). The HB4a clones were cultured in RPMI containing 10% FBS, insulin (5 g/mL), hydrocortisone (5 g/mL), supplemented with the selection agent hygromycin B (50 g/mL). All lines were grown in a humidified incubator at 37° C. in 95% air, 5% CO2. Cells were harvested using trypsin/EDTA, counted using a haemocytometer, and plated in 100 microliters of the appropriate media, at the following densities, in a 96-well tissue culture plate (Falcon 3075): BT474 10,000 cells/well, HN5 3,000 cells/well. The next day, compounds were diluted in DMEM containing […] gentamicin, at twice the final required concentration, from 10 mM stock solutions in DMSO. 100 microliters/well of these dilutions were added to the 100 microliters of media currently on the cell plates. Medium containing 0.6% DMSO was added to control wells. Compounds diluted in DMEM were added to all cell lines. The final concentration of DMSO in all wells was 0.3%. Cells were returned to the incubator (37° C., 10% CO2) for 3 days. Medium was then removed by aspiration. Cell biomass was estimated by staining cells with 90 microliters per well methylene blue (Sigma M9140, 0.5% in 1:1 ethanol:water), and incubation at rt for at least 30 minutes. Stain was removed, and the plates rinsed by immersion in deionized water and air-dried. To release stain from the cells 100 microliters of solubilization solution was added (1% N-lauroyl sarcosine, Sodium salt, Sigma L5125, in PBS), and plates were shaken gently for about 30 minutes. Optical density at 620 nm was measured on a microplate reader. Percent inhibition of cell growth was calculated relative to vehicle treated control wells. Concentration of compound that inhibits 50% of control cell growth (IC50) was interpolated using nonlinear regression (Levenberg-Marquardt) and the equation, y=Vmax*(1−(x/(K+x)))+Y2, where “K” was equal to the IC50. Method B: Celltiter Glo® Growth Inhibition Assays

[2] = Method A: substrate mix added first, reaction started with enzyme mix
[3] = Method B: enzyme mix pre-incubated with compound 1 hour at 20° C., started with substrate mix

Structure (SMILES)	IC50 [1] [nM]	Activity (Method): pIC50 class against ErbB2 or EGFR (ErbB2 or EGFR; [2])	Activity (Method): pIC50 class against ErbB2 or EGFR (ErbB2 or EGFR; [3])
Cc1c(F)cccc1C(=O)Nc1cccc(-c2nn3ccccc3c2-c2ccnc(Nc3cccc(F)c3)n2)c1 [Example 71, 3-Fluoro-N-[3-(3-{2-[(3-fluorophenyl)amino]-4-pyrimidinyl}pyrazolo[1,5-a]pyridin-2-yl)phenyl]-2-methylbenzamide]	100 to 1000	–	++ (B) (at least one pIC50 measurement greater than 6 against either ErbB2 or EGFR but no measurement greater than pIC50 of 7)
COc1cc(Nc2nccc(-c3c(-c4cccc(NC(=O)c5c(F)cccc5F)c4)nn4c(C(F)(F)F)cccc34)n2)cc(OC)c1OC [Example 151, N-[3-(3-{2-[(3,4,5-Trimethoxyphenyl)amino]-4-pyrimidinyl}-7-trifluoropyrazolo[1,5-b]pyridin-2-yl)phenyl]-2,6-difluorobenzamide]	100 to 1000	++ (A) (at least one pIC50 measurement greater than 6 against either ErbB2 or EGFR but no measurement greater than pIC50 of 7)	–
Cn1cccc1C(=O)Nc1cccc(-c2nn3ccccc3c2-c2ccnc(Nc3cccc(F)c3)n2)c1 [Example 82, N-[3-(3-{2-[(3-fluorophenyl)amino]-4-pyrimidinyl}-pyrazolo[1,5-a]pyridin-2-yl)phenyl]-1-methyl-1H-pyrrole-2-carboxamide]	100 to 1000	–	+++ (B) (at least one pIC50 measurement of greater than 7 against either ErbB2 or EGFR)
S=C(Nc1cccc(-c2nn3ccccc3c2-c2ccnc(Nc3ccc4c(c3)OCCO4)n2)c1)c1ccccc1 [Example 7, N-(3-{3-[2-(2,3-Dihydro-benzo[1,4]dioxin-6-ylamino)-pyrimidin-4-yl]-pyrazolo[1,5-a]pyridin-2-yl}-phenyl)-thiobenzamide]	100 to 1000	++ (A) (at least one pIC50 measurement greater than 6 against either ErbB2 or EGFR but no measurement greater than pIC50 of 7)	–
O=C(Nc1cccc(-c2nn3ccccc3c2-c2ccnc(Nc3cccc(F)c3)n2)c1)c1cc(F)ccc1F [Example 39, 2,5-Difluoro-N-[3-(3-{2-[(3-fluorophenyl)amino]-4-pyrimidinyl}pyrazolo[1,5-a]pyridin-2-yl)phenyl]benzamide]	100 to 1000	–	+++ (B) (at least one pIC50 measurement of greater than 7 against either ErbB2 or EGFR)
Cc1ccc(Nc2nccc(-c3c(-c4cccc(NC(=O)c5cc(F)ccc5F)c4)nn4ccccc34)n2)cc1S(N)(=O)=O [Example 52, N-{3-[3-(2-{[3-(Aminosulfonyl)-4-methylphenyl]amino}-4-pyrimidinyl)pyrazolo[1,5-a]pyridin-2-yl]phenyl}-2,5-difluorobenzamide]	100 to 1000	+++ (A) (at least one pIC50 measurement of greater than 7 against either ErbB2 or EGFR)	–
O=C(Nc1cccc(-c2nn3ccccc3c2-c2ccnc(Nc3cccc(F)c3)n2)c1)c1cnc2ccccc2n1 [Example 24, N-[3-(3-{2-[(3-Fluorophenyl)amino]-4-pyrimidinyl}pyrazolo[1,5-a]pyridin-2-yl)phenyl]-2-quinoxalinecarboxamide]	> 1000	–	+ (B) (no pIC50 measurement greater than 6 against either ErbB2 or EGFR)

Further lines, with some results ahead:

IC50 [1] [nM]	Structure (SMILES)	Activity (Method): pIC50 class against ErbB2 or EGFR (ErbB2 or EGFR; [2])	Activity (Method): pIC50 class against ErbB2 or EGFR (ErbB2 or EGFR; [3])
< 100	O=C(Nc1cccc(-c2nn3ccccc3c2-c2ccnc(Nc3ccc4c(c3)OCCO4)n2)c1)c1c(F)cccc1F [Example 114, N-(3-{3-[2-(2,3-dihydro-1,4-benzodioxin-6-ylamino)-4-pyrimidinyl]pyrazolo[1,5-a]pyridin-2-yl}phenyl)-2,6-difluorobenzamide]	+++ (A) (at least one pIC50 measurement of greater than 7 against either ErbB2 or EGFR)	–
100 to 1000	Nc1cccc(C(=O)Nc2cccc(-c3nn4ccccc4c3-c3ccnc(Nc4ccccc4)n3)c2)c1 [Example 143, 3-Amino-N-(3-{3-[2-(phenylamino)-4-pyrimidinyl]pyrazolo[1,5-a]pyridin-2-yl}phenyl)benzamide]	+++ (A) (at least one pIC50 measurement of greater than 7 against either ErbB2 or EGFR)	–
100 to 1000	O=C(Nc1cccc(-c2nn3ccccc3c2-c2ccnc(Nc3ccon3)n2)c1)c1c(F)cccc1F [Example 85, 2,6-Difluoro-N-(3-{3-[2-(3-isoxazolylamino)-4-pyrimidinyl]pyrazolo[1,5-a]pyridin-2-yl}phenyl)benzamide]	+++ (A) (at least one pIC50 measurement of greater than 7 against either ErbB2 or EGFR)	–
< 100	O=C(Nc1cccc(-c2nn3ccccc3c2-c2ccnc(Nc3cccc(F)c3)n2)c1)c1cccc(F)c1F [Example 14, 2,3-Difluoro-N-(3-{3-[2-(3-fluoro-phenylamino)-pyrimidin-4-yl]-pyrazolo[1,5-a]pyridin-2-yl}-phenyl)-benzamide]	–	+++ (B) (at least one pIC50 measurement of greater than 7 against either ErbB2 or EGFR)
< 100	Cc1cc(Nc2nccc(-c3c(-c4cccc(NC(=O)c5c(F)cccc5F)c4)nn4ccccc34)n2)ccc1C#N [Example 95]	–	+++ (B) (at least one pIC50 measurement of greater than 7 against either ErbB2 or EGFR)
< 100	O=C(Nc1cccc(-c2nn3ccccc3c2-c2ccnc(Nc3ccc(N4CCCC4)c(F)c3)n2)c1)c1c(F)cccc1F [Example 148, 2,6-Difluoro-N-{3-[3-(2-{[3-fluoro-4-(1-pyrrolidinyl)-phenyl]amino}-4-pyrimidinyl)pyrazolo[1,5-a]pyridin-2-yl]phenyl}benzamide]	+++ (A) (at least one pIC50 measurement of greater than 7 against either ErbB2 or EGFR)	–
< 100	CN1CCc2ccc(Nc3nccc(-c4c(-c5cccc(NC(=O)c6ccccc6)c5)nn5ccccc45)n3)cc2C1 [Example 63, N-[3-(3-{2-[(2-methyl-1,2,3,4-tetrahydro-7-isoquinolinyl)amino]-4-pyrimidinyl}pyrazolo[1,5-a]pyridin-2-yl)phenyl]benzamide]	–	+++ (B) (at least one pIC50 measurement of greater than 7 against either ErbB2 or EGFR)
